The test system of the experiment is DNA. Kind of experiment: Binding affinity to calf thymus DNA. The note with it: Bos taurus. Type of experiment: nucleic-acid assay.
Turning to `COc1cc2c(cc1OCCCNC(=O)C(N)CCCCN)CC[n+]1cc3c(OCCCNC(=O)C(N)CCCCN)c(OC)ccc3cc1-2` (centres undefined), the Kapp was 1.08 10^7/M.

On to `COc1cc2c(cc1OCCCNC(=O)C(N)CCCCNC(=O)C(N)CCCCN)CC[n+]1cc3c(OCCCNC(=O)C(N)CCCCNC(=O)C(N)CCCCN)c(OC)ccc3cc1-2` (centres undefined), for which the Kapp is 1.15 10^7/M.

In the case of `COc1cc2c(cc1OCCCN)CC[n+]1cc3c(OCCCN)c(OC)ccc3cc1-2`, the Kapp is 2.81 10^5/M.

As to `COc1cc2c(cc1OC)-c1cc3ccc(OC)c(OC)c3c[n+]1CC2`, the Kapp was 8.72 10^3/M.

These data come from ChEMBL document CHEMBL1146310, “Amplification of DNA-binding affinities of protoberberine alkaloids by appended polyamines” (Bioorg Med Chem Lett, 2007).
